This is an account of results in patent publication US10508120B2, “TYK2 inhibitors and uses thereof” (Nimbus Lakshmi, Inc., priority 2017, dated 2019).

The IC50 is the concentration at which inhibition is half-maximal. By inhibition is commonly meant how much of the control response was suppressed. The term Kd denotes the free concentration of one partner at which half of the binding sites on the other are occupied at equilibrium, for simple one-to-one binding. Lower therefore signals a tighter complex.

The target in test [1] is Tyk2/JAK2 (heterodimeric complex) (Homo sapiens (Human), UniProt P29597). Put plainly: IL-12 Induced pSTAT4 in Human PBMC. To be noted: 1.7 ng/mL IL-12. The test is classed as cell-based. The source says: The IL-12 Induced pSTAT4 assay evaluates the inhibition of IL-12 induced STAT4 phophorylation mediated by Tyk2/JAK2 (heterodimeric complex).
In test [2] the target is Tyk2 kinase domain (DH1) (Homo sapiens (Human), UniProt P29597). Kind of test: Tyk2 Radioactive Kinase Assay. In kind it is biochemical. To be noted: for inhibition at 10 µM: read-out: Tyk2 JH1% Inhibition @ 10 μM. In short, it runs like this: (§1)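 Values are single-concentration percent inhibition figures. They were obtained with 10 μM compound in a radioactivity-based kinase assay run separately on each enzyme.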

The target in test [3] is JAK2 kinase domain (JH1) (Homo sapiens (Human), UniProt O60674). Put plainly: JAK2 Radioactive Kinase Assay. To be noted: for inhibition at 10 µM: read-out: JAK2 JH1% Inhibition @ 10 μM. The test is classed as biochemical. In short, it runs like this: as §1
The target in test [4] is human TYK2 (JH2domain-pseudokinase) (Homo sapiens (Human), UniProt P29597). Kind of test: TYK2 JH2 Domain Binding Assay (KINOMEscan). An outline of the steps:
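Displacement of a DNA-tagged TYK2 JH2 fusion (human, aa G556–D888, HEK293 extract, <0.1 nM) from ligand-coated beads over 1 h at RT; binding buffer PBS/0.05% Tween 20/10 mM DTT/0.1% BSA.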

The target in test [5] is JAK2/JAK2 homdimeric complex (Homo sapiens (Human), UniProt O60674). Kind of test: GM-CSF Induced pSTAT5 in Human PBMC. To be noted: GM-CSF 5 ng/mL for 20 minutes, pSTAT5 by MSD, read-out: PBMC_GMCSF_pSTAT5 IC50. In kind it is cell-based.

Like-named read-outs stand apart in the source and are kept apart here. Some results are limits rather than exact numbers.

Chain of JAK2 kinase domain (JH1) (O60674 849-1124): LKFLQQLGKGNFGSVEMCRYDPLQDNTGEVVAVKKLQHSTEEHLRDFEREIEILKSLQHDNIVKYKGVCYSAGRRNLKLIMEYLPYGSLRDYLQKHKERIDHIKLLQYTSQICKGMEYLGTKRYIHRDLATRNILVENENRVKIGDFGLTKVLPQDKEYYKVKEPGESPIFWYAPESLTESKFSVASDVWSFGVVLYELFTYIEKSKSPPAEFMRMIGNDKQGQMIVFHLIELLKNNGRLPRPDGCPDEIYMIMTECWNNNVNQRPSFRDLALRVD
Chain of human TYK2 (JH2domain-pseudokinase) (P29597 556-888): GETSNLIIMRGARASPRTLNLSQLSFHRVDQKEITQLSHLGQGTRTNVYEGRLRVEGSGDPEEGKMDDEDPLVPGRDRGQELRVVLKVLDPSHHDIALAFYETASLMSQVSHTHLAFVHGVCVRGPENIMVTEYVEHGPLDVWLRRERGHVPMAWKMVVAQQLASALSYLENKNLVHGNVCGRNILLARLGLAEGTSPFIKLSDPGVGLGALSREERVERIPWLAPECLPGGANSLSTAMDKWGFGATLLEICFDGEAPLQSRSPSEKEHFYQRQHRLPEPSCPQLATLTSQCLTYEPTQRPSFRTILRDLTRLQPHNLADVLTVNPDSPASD
Chain of Tyk2/JAK2 (heterodimeric complex) (P29597 whole entry, other chains not shown, the tested form may be a part): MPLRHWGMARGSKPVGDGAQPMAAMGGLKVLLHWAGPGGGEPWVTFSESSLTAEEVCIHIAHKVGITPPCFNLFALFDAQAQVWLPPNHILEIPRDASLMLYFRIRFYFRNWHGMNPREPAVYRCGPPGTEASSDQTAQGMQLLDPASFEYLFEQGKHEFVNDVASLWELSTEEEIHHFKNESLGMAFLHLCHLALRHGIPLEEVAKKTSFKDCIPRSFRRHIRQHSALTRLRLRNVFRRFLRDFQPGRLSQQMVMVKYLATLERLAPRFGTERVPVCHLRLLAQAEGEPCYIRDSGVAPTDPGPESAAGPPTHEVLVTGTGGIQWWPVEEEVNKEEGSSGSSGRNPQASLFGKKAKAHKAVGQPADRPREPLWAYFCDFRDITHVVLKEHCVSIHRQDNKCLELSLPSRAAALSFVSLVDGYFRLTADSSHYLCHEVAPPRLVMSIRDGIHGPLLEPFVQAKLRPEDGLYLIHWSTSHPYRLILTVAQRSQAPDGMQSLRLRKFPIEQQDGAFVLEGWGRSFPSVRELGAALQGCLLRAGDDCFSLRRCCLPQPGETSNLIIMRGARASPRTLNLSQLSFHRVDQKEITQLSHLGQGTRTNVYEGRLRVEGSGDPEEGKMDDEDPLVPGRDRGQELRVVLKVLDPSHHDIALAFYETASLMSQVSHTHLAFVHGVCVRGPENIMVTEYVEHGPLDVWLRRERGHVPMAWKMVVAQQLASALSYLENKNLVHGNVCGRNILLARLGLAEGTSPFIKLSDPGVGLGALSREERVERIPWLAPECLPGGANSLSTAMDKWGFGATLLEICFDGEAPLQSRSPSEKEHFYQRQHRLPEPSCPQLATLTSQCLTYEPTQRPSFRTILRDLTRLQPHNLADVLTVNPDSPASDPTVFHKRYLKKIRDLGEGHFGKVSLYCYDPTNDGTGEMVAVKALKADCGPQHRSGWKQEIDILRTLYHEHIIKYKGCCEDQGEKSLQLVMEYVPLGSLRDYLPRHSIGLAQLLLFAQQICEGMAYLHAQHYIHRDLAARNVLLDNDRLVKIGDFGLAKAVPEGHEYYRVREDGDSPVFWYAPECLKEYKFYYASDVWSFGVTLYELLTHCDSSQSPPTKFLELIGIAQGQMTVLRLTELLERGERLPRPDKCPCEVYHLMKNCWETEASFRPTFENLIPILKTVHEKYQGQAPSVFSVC
Chain of JAK2/JAK2 homdimeric complex (O60674 whole entry): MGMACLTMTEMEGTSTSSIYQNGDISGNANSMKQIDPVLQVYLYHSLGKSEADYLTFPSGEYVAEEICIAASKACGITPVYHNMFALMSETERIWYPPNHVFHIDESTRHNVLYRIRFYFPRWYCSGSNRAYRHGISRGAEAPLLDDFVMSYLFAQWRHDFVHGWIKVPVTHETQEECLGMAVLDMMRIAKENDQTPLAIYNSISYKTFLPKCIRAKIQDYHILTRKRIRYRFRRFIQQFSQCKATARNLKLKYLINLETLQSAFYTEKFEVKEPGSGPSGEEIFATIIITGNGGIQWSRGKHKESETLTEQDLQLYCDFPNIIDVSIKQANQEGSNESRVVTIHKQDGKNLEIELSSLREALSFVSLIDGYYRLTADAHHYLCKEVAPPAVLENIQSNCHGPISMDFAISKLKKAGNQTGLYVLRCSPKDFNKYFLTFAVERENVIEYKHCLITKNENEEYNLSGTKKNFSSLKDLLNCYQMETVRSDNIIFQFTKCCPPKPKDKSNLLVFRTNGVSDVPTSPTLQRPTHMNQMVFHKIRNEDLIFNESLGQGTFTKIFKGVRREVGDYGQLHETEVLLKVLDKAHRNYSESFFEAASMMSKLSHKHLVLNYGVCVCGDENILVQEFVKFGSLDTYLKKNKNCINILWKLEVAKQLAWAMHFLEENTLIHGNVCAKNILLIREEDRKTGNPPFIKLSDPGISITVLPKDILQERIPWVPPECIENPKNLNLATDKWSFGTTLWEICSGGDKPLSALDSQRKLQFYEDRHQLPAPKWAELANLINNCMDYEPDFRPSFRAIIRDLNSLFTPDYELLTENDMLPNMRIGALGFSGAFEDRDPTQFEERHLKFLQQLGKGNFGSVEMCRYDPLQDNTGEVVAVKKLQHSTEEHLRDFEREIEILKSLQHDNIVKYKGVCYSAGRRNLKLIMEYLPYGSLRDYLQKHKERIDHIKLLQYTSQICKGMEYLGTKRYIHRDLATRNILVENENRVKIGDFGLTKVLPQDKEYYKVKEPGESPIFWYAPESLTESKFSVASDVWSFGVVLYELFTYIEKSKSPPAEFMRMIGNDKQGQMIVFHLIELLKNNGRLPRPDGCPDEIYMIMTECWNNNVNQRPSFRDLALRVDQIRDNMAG
Chain of JAK2/JAK2 homdimeric complex (P32927 17-897 partner): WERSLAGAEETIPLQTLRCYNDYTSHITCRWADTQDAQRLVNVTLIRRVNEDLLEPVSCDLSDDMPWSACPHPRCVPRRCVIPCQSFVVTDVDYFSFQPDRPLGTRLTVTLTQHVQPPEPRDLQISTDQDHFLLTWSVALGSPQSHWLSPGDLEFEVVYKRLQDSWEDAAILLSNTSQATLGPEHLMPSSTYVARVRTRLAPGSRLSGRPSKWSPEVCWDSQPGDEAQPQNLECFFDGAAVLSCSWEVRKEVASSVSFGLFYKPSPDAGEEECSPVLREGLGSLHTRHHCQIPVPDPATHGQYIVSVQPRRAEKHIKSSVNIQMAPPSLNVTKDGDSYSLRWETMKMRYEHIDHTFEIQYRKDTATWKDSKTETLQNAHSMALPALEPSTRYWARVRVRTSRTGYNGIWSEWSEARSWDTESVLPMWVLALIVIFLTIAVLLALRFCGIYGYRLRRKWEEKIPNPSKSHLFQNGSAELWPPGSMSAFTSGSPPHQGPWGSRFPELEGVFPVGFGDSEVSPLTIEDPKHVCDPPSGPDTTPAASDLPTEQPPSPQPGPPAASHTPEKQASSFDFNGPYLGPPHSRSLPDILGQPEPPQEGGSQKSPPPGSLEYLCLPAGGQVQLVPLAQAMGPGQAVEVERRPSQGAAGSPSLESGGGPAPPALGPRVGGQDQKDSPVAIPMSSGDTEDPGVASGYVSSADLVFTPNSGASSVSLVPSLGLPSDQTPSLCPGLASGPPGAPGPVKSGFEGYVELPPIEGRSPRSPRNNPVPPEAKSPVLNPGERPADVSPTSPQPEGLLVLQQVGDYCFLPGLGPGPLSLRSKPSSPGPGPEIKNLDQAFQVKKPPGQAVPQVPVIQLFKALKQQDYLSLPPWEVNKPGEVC
Chain of Tyk2 kinase domain (DH1) (P29597 897-1176): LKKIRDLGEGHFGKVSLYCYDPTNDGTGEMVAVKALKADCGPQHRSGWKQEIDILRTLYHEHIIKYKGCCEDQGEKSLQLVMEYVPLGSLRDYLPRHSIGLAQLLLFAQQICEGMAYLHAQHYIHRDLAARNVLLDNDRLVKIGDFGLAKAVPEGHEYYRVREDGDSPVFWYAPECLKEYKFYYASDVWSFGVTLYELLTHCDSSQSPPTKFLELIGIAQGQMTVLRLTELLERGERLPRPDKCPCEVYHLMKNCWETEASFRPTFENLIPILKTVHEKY

In the case of `[2H]C([2H])([2H])Oc1ncccc1Nc1cc(NC)n2ncc(C(=O)N[C@@H]3CC[C@@H]3O)c2n1` (stereo in doubt) [I-391, N-(2-hydroxycyclobutyl)-5-((2-(methoxy-d3)pyridin-3-yl)amino)-7-(methylamino)pyrazolo [1,5-a]pyrimidine-3-carboxamide], the values for the IC50 in test [1] and in test [5] were less than 100 nM and greater than 50000 nM, respectively. Further, the inhibition at 10 µM in test [2] (compound at 10 μM, ATP 10 μM) was less than 50%; in test [3] (compound at 10 μM, ATP 10 μM), less than 50%. Moreover, the dissociation constant Kd in test [4] was less than 0.2 nM.
With `CNc1cc(Nc2cccnc2OC2CC2)nc2c(C(=O)N[C@@H]3CC[C@@H]3O)cnn12` [I-401], the half-maximal inhibitory concentration (IC50) in test [1] was less than 100 nM; in test [5], greater than 12500 nM. The inhibition at 10 µM in test [2] (compound at 10 μM, ATP 10 μM) was less than 50%; in test [3] (compound at 10 μM, ATP 10 μM), less than 50%. Further, the equilibrium dissociation constant (Kd) in test [4] is less than 0.2 nM.
With `CNc1cc(Nc2cc(Cl)cn(C3CCCN(C)C3)c2=O)nc2c(C(=O)N[C@@H]3C[C@@H]3F)cnn12` (stereo partly drawn) [I-759], the IC50 was less than 100 nM in test [1] and greater than 50000 nM in test [5]. The inhibition at 10 µM in test [2] (compound at 10 μM, ATP 10 μM) is less than 50%; in test [3] (compound at 10 μM, ATP 10 μM) it was less than 50%. In addition, the dissociation constant (Kd) in test [4] is less than 0.2 nM.
As for `CNc1cc(Nc2cccn(-c3cc(C)n(C)n3)c2=O)nc2c(C(=O)NC3CC3)cnn12` [I-138], the half-inhibitory concentration (IC50) is less than 100 nM in test [1] and greater than 50000 nM in test [5]. In addition, the inhibition at 10 µM in test [2] (compound at 10 μM, ATP 10 μM) was less than 50%; in test [3] (compound at 10 μM, ATP 10 μM) it was less than 50%. This molecule had a dissociation constant (Kd) in test [4] of less than 0.2 nM.
`CNc1cc(Nc2cccn([C@H]3CC[C@](C)(OC)CC3)c2=O)nc2c(C(=O)N[C@@H]3CC[C@@H]3O)cnn12` [I-722, N-((1S,2R)-2-hydroxycyclobutyl)-5-((1-((1R,4S)-4-methoxy-4-methylcyclohexyl)-2-oxo-1,2-dihydropyridin-3-yl)amino)-7-(methylamino)pyrazolo[1,5-a]pyrimidine-3-carboxamide]: the figures for the IC50 in test [1] and in test [5] were less than 100 nM and greater than 12500 nM, respectively. For the same molecule, the “Tyk2 JH1% Inhibition @ 10 μM” value in test [2] (compound at 10 μM, ATP 10 μM) is “A (percent inhibition at 10 μM lower than 50)”. Further, the “JAK2 JH1% Inhibition @ 10 μM” value in test [3] (compound at 10 μM, ATP 10 μM) is “A (percent inhibition at 10 μM lower than 50)”. The molecule also had a dissociation constant Kd in test [4] of less than 0.2 nM.
On to `[2H]C([2H])([2H])Oc1ncc(C)cc1Nc1cc(NC)n2ncc(C(=O)NC3CC3)c2n1` [I-258], for which the values for the half-maximal inhibitory concentration (IC50) in test [1] and in test [5] were less than 100 nM and greater than 50000 nM, respectively. The inhibition at 10 µM is less than 50% in test [2] (compound at 10 μM, ATP 10 μM) and less than 50% in test [3] (compound at 10 μM, ATP 10 μM). Further, the dissociation constant Kd in test [4] was less than 0.2 nM.
Consider `CNc1cc(Nc2cc(F)cc(F)c2F)nc2c(C(=O)NC3CC3)cnn12` [I-5], for which the figures for the IC50 in test [1] and in test [5] were less than 100 nM and greater than 50000 nM, respectively. The inhibition at 10 µM in test [2] (compound at 10 μM, ATP 10 μM) was less than 50%; in test [3] (compound at 10 μM, ATP 10 μM) it was less than 50%. The dissociation constant (Kd) in test [4] is less than 0.2 nM.
Regarding `CNc1cc(Nc2cccnc2OC)nc2c(C(=O)NC3CCC3O)cnn12` (stereo not drawn) [I-390, N-(2-hydroxycyclobutyl)-5-((2-methoxypyridin-3-yl)amino)-7-(methylamino) pyrazolo[1,5-a]pyrimidine-3-carboxamide], the concentration for half-maximal inhibition (IC50) in test [1] was less than 100 nM; in test [5], greater than 50000 nM. For the same molecule, the inhibition at 10 µM in test [2] (compound at 10 μM, ATP 10 μM) was less than 50%; in test [3] (compound at 10 μM, ATP 10 μM) it was less than 50%. The same molecule displayed a Kd in test [4] of less than 0.2 nM.
Turning to `CNc1cc(Nc2cccn(-c3nc(C)co3)c2=O)nc2c(C(=O)NC3CC3)cnn12` [I-368], the IC50 is less than 100 nM in test [1] and greater than 12500 nM in test [5]. Besides, the inhibition at 10 µM in test [2] (compound at 10 μM, ATP 10 μM) is less than 50%; in test [3] (compound at 10 μM, ATP 10 μM), less than 50%. For the same molecule, the Kd in test [4] is less than 0.2 nM.
Turning to `CNc1cc(Nc2cccn(-c3cccnc3)c2=O)nc2c(C(=O)N[C@@H]3C[C@@H]3F)cnn12` [I-748], the values for the IC50 in test [1] and in test [5] were less than 100 nM and greater than 2500 nM, respectively. Also, the inhibition at 10 µM in test [2] (compound at 10 μM, ATP 10 μM) was less than 50%; in test [3] (compound at 10 μM, ATP 10 μM), less than 50%. The same molecule returned a Kd in test [4] of less than 0.2 nM.
On to `CNc1cc(Nc2cccn([C@H]3CC[C@H](OC)CC3)c2=O)nc2c(C(=O)N[C@@H]3CC[C@@H]3O)cnn12` [I-560], for which the IC50 in test [1] was less than 100 nM; in test [5], greater than 2500 nM. For the same molecule, the inhibition at 10 µM is less than 50% in test [2] (compound at 10 μM, ATP 10 μM) and less than 50% in test [3] (compound at 10 μM, ATP 10 μM). For the same molecule, the Kd in test [4] was less than 0.2 nM.
In the case of `CNc1cc(Nc2cccn(CCOC)c2=O)nc2c(C(=O)NC3CCC3)cnn12` [I-269], the IC50 in test [1] was less than 100 nM; in test [5] it was greater than 50000 nM. For the same molecule, the inhibition at 10 µM was less than 50% in test [2] (compound at 10 μM, ATP 10 μM) and less than 50% in test [3] (compound at 10 μM, ATP 10 μM). In test [4], this molecule gave a dissociation constant Kd of less than 0.2 nM.
For the molecule `CNc1cc(Nc2cc(C)cc(C)c2)nc2c(C(N)=O)cnn12` [I-2, 5-((3,5-dimethylphenyl)amino)-7-(methylamino)pyrazolo[1,5-a]pyrimidine-3-carboxamide], the results for the half-maximal inhibitory concentration (IC50) in test [1] and in test [5] were less than 100 nM and greater than 50000 nM, respectively. The inhibition at 10 µM in test [2] (compound at 10 μM, ATP 10 μM) was less than 50%; in test [3] (compound at 10 μM, ATP 10 μM), less than 50%. The molecule further had a dissociation constant (Kd) in test [4] of less than 0.2 nM.
For `CNc1cc(-c2cn(CCN3CCOCC3)c3ncccc23)nc2c(C(=O)N[C@H]3CC[C@@H]3OC)cnn12` [I-886], the IC50 is less than 100 nM in test [1] and greater than 300 nM in test [5]. For the same molecule, the inhibition at 10 µM was less than 50% in test [2] (10 μM compound, 10 μM ATP) and less than 50% in test [3] (10 μM compound, 10 μM ATP). This molecule had a dissociation constant Kd in test [4] of less than 0.2 nM.
Turning to `CNc1cc(Nc2cccnc2OC)nc2c(C(=O)NCC(C)(C)CO)cnn12` [I-346], the IC50 is less than 100 nM in test [1] and greater than 2500 nM in test [5]. For the same molecule, the inhibition at 10 µM in test [2] (compound at 10 μM, ATP 10 μM) was less than 50%; in test [3] (compound at 10 μM, ATP 10 μM) it was less than 50%. This molecule also displayed a Kd in test [4] of less than 0.2 nM.
In the case of `CNc1cc(-c2cn(C(C)C)c3ncccc23)nc2c(C(N)=O)cnn12` [I-222, 5-(1-isopropyl-1H-pyrrolo[2,3-b]pyridin-3-yl)-7-(methylamino)pyrazolo[1,5-a]pyrimidine-3-carboxamide], the values for the IC50 in test [1] and in test [5] were less than 100 nM and greater than 2500 nM, respectively. Further, the inhibition at 10 µM in test [2] (compound at 10 μM, ATP 10 μM) was less than 50%; in test [3] (compound at 10 μM, ATP 10 μM), less than 50%. Moreover, in test [4], the Kd lay in the range of 0.2 to 1 nM.
On to `CNc1cc(Nc2cc(Cl)cn([C@H]3CCCN(C)C3)c2=O)nc2c(C(=O)N[C@@H]3C[C@@H]3F)cnn12` [I-854], for which the IC50 in test [1] is less than 100 nM; in test [5] it was greater than 50000 nM. The inhibition at 10 µM was less than 50% in test [2] (10 μM compound, 10 μM ATP) and less than 50% in test [3] (10 μM compound, 10 μM ATP). The equilibrium dissociation constant (Kd) in test [4] was less than 0.2 nM.
For `CNc1cc(Nc2cccnc2OC2CC2)nc2c(C(=O)NC3CCC3)cnn12` [I-216], the IC50 in test [1] was less than 100 nM; in test [5], greater than 12500 nM. For the same molecule, the inhibition at 10 µM was less than 50% in test [2] (compound at 10 μM, ATP 10 μM) and less than 50% in test [3] (compound at 10 μM, ATP 10 μM). In addition, in test [4], the dissociation constant (Kd) is less than 0.2 nM.
For `CNc1cc(Nc2cccnc2OC)nc2c(C(=O)NCC3(CO)CC3)cnn12` [I-425], the IC50 was less than 100 nM in test [1] and greater than 50000 nM in test [5]. The inhibition at 10 µM is less than 50% in test [2] (compound at 10 μM, ATP 10 μM) and less than 50% in test [3] (compound at 10 μM, ATP 10 μM). Also, in test [4], the equilibrium dissociation constant (Kd) was less than 0.2 nM.
In the case of `CCONC(=O)c1cnn2c(NC)cc(Nc3cccnc3OC)nc12` [I-409, N-ethoxy-5-((2-methoxypyridin-3-yl)amino)-7-(methylamino)pyrazolo[1,5-a]pyrimidine-3-carboxamide], the results for the half-inhibitory concentration (IC50) in test [1] and in test [5] were less than 100 nM and greater than 12500 nM, respectively. The inhibition at 10 µM in test [2] (compound at 10 μM, ATP 10 μM) was less than 50%; in test [3] (compound at 10 μM, ATP 10 μM) it was less than 50%. This molecule gave an equilibrium dissociation constant (Kd) in test [4] of less than 0.2 nM.
Turning to `CNc1cc(Nc2cccn(-c3ccc(F)cc3)c2=O)nc2c(C(=O)NC3CCC3)cnn12` [I-246], the figures for the IC50 in test [1] and in test [5] were less than 100 nM and greater than 2500 nM, respectively. The inhibition at 10 µM in test [2] (compound at 10 μM, ATP 10 μM) was less than 50%; in test [3] (compound at 10 μM, ATP 10 μM), less than 50%. The Kd in test [4] was less than 0.2 nM.
